# From ChEMBL document CHEMBL2417358, “Design, stereoselective synthesis, and biological evaluation of novel tri-cyclic compounds as inhibitor of apoptosis proteins (IAP) antagonists” (Bioorg Med Chem, 2013)
# Tests used:
# Mus musculus = test: Upregulation of TNFalpha mRNA level in human MDA-MB-231 cells expressing luciferase xenografted in po dosed mouse after 6 hrs by RT-PCR analysis; type: functional, organism-based
# [1] = Metabolic stability in mouse liver microsomes assessed as compound remaining at 1 umol/L after 15 to 30 mins by LC/MS/MS analysis; type: ADME, Microsome; conditions: read-out: Stability
# [2] = Metabolic stability in human liver microsomes assessed as compound remaining at 1 umol/L after 15 to 30 mins by LC/MS/MS analysis; type: ADME, Microsome; conditions: read-out: Stability
# MDA-MB-231 = test: Growth inhibition of human MDA-MB-231 cells after 72 hrs by luminescence assay; type: functional; conditions: MDA-MB-231, 72 h
SMILES,Activity (Mus musculus),microsomal CLint at 1 µM [1] [µL/min/mg],microsomal CLint at 1 µM [2] [µL/min/mg],GI50 (MDA-MB-231) [nM]
CN[C@@H](C)C(=O)N[C@H](C(=O)N1C[C@H]2C[C@@H]3C[C@@H]3N2C[C@H]1C(=O)N[C@@H]1CCOc2ccccc21)C1CCCCC1,Dose-dependent effect,96,72,7.8
CN[C@@H](C)C(=O)N[C@H](C(=O)N1C[C@H]2C[C@H]3C[C@H]3N2C[C@H]1C(=O)N[C@@H]1CCOc2ccccc21)C1CCCCC1,–,45,39,83
CN[C@@H](C)C(=O)N[C@H](C(=O)N1C[C@H]2CCCN2C[C@H]1C(=O)N[C@@H]1CCOc2ccccc21)C1CCCCC1,–,–,–,5.7
